Where two headings read alike, the source gives them in different places. Values belong to the molecule of their own block, whether it stands above or below them.
Key:
Format in all cases: biochemical
PDE1A = target: T1, PDE1A (Homo sapiens, UniProt P54750); assay: Phosphodiesterase enzyme screening assay, PDE1A; details: value greater than 1 indicates greater selectivity for PDE9A2
T1 construct: purchased Reaction Biology Corporation, Malvern, Pa
In short: (§1)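 Reaction started by adding substrate (4.0 μM cGMP) to recombinant human enzyme in HEPES pH 7.5 buffer with MgCl2, DTT and Brij; 1 h at room temperature; quenched with EDTA-containing stop buffer; product and substrate resolved electrophoretically and quantified by fluorescence relative to uninhibited controls.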

PDE9A2 = target: T2, PDE9A2 (Homo sapiens, UniProt O76083); assay: Phosphodiesterase enzyme screening assay, PDE9A2
T2 construct: purchased Reaction Biology Corporation, Malvern, Pa
In short: as §1

PDE1B = target: T3, PDE1B (Homo sapiens, UniProt Q01064); assay: Phosphodiesterase enzyme screening assay, PDE1B; details: value greater than 1 indicates greater selectivity for PDE9A2
T3 construct: purchased Reaction Biology Corporation, Malvern, Pa
In short: as §1

[1] = ratio of IC50 values PDE1A vs PDE9A2
[2] = IC50 band, 4.0 μM cGMP substrate, 1 hour at R.T.
[3] = ratio of IC50 values PDE1B vs PDE9A2
[4] = ratio of IC50 values, PDE1A versus PDE9A2
[5] = ratio of IC50 values, PDE1B versus PDE9A2
[6] = Table 1, 10 concentrations, 4.0 μM cGMP substrate, 1 hour at R.T., read-out: Band (PDE9A2 IC50)

T2 sequence (O76083 1-533 isoform O76083-2): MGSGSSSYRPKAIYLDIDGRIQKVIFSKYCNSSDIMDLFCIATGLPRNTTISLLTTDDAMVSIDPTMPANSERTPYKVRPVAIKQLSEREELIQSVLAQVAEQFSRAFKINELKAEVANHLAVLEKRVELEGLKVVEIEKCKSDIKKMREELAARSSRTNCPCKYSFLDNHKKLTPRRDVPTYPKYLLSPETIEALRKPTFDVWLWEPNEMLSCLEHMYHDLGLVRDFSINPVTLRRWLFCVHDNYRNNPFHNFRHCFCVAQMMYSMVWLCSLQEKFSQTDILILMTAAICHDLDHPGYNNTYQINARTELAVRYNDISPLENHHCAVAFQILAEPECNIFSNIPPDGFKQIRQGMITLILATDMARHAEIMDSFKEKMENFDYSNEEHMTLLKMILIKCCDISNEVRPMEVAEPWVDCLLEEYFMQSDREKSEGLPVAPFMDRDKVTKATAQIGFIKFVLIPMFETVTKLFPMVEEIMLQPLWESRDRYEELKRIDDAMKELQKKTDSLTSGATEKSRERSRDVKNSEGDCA
T3 sequence (Q01064 whole entry): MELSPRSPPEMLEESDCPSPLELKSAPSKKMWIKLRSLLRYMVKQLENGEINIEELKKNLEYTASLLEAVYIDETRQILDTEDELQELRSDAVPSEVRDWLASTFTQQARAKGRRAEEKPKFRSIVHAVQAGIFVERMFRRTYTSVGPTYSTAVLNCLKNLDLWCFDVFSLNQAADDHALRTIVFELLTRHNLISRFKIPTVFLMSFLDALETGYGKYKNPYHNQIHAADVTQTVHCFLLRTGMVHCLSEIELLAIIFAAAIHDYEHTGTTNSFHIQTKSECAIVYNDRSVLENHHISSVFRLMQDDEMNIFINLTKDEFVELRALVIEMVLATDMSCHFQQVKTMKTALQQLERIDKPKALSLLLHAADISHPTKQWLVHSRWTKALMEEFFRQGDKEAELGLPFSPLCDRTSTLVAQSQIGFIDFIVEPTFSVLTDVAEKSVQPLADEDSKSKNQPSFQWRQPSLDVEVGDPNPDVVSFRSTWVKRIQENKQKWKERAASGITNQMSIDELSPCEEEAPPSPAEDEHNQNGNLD
T1 sequence (P54750 whole entry): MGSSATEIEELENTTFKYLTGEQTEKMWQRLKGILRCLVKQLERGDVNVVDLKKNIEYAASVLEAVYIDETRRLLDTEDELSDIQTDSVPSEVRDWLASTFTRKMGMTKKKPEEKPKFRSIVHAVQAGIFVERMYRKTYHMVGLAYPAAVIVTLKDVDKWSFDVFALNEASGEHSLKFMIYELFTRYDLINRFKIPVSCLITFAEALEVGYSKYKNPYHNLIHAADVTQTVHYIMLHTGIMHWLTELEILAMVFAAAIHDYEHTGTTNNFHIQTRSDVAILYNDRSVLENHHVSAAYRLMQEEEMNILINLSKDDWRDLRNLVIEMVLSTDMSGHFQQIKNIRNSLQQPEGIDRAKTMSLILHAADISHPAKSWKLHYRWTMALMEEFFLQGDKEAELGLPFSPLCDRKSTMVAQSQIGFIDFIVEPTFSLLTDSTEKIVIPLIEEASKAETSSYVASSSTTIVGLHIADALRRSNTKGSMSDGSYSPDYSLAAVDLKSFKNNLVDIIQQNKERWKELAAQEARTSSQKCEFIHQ

- PDE1A selectivity (versus PDE9A2) (PDE1A; [1]): 342
- IC50 (PDE9A2; [2]): < 1000 nM
- PDE1B selectivity (versus PDE9A2) (PDE1B; [3]): 393
Structure (SMILES): Cc1cc(F)ccc1-c1ncc2c(=O)[nH]c(C3CN(Cc4cnccn4)CC3C)nn12 (single isomer, unassigned; (+)) [(+)-7-(4-fluoro-2-methylphenyl)-2-((3,4-trans)-4-methyl-1-(pyrazin-2-ylmethyl)pyrrolidin-3-yl)imidazo[5,1-f][1,2,4]triazin-4(3H)-one]

- PDE1A selectivity (versus PDE9A2) (PDE1A; [1]): 5780
- IC50 (PDE9A2; [2]): < 1000 nM
- PDE1B selectivity (versus PDE9A2) (PDE1B; [3]): 374
Structure (SMILES): Cc1cc(F)ccc1-c1ncc2c(=O)[nH]c(C3CN(Cc4ccccn4)CC3C)nn12 (single isomer, unassigned; (+)) [(+)-7-(4-fluoro-2-methylphenyl)-2-((3,4-trans)-4-methyl-1-(pyridin-2-ylmethyl)pyrrolidin-3-yl)imidazo[5,1-f][1,2,4]triazin-4(3H)-one]

- PDE1A selectivity (versus PDE9A2) (PDE1A; [1]): 452
- IC50 (PDE9A2; [2]): < 1000 nM
- PDE1B selectivity (versus PDE9A2) (PDE1B; [3]): 492
Structure (SMILES): Cc1cc(F)ccc1-c1ncc2c(=O)[nH]c(C3CN(Cc4cccnc4)CC3C)nn12 (single isomer, unassigned; (+)) [(+)-7-(4-fluoro-2-methylphenyl)-2-((3,4-trans)-4-methyl-1-(pyridin-3-ylmethyl)pyrrolidin-3-yl)imidazo[5,1-f][1,2,4]triazin-4(3H)-one]

- PDE1A selectivity (versus PDE9A2) (PDE1A; [4]): 120
- IC50 (PDE9A2; read-out: Band (PDE9A2 IC50)): < 1000 nM
- PDE1B selectivity (versus PDE9A2) (PDE1B; [5]): 209
Structure (SMILES): CC1CN(Cc2cn3ccccc3n2)CC1c1nn2c(-c3ccc(F)cc3)ncc2c(=O)[nH]1 (single isomer, unassigned; (+)) [(+)-7-(4-fluorophenyl)-2-((3,4-trans)-1-(imidazo[1,2-a]pyridin-2-ylmethyl)-4-methylpyrrolidin-3-yl)imidazo[5,1-f][1,2,4]triazin-4(3H)-one]

- PDE1A selectivity (versus PDE9A2) (PDE1A; [4]): 9
- IC50 (PDE9A2; read-out: Band (PDE9A2 IC50)): < 1000 nM
- PDE1B selectivity (versus PDE9A2) (PDE1B; [5]): 8
Structure (SMILES): CC1CN(Cc2cnccn2)CC1c1nn2c(-c3ccc(F)cc3)ncc2c(=O)[nH]1 (single isomer, unassigned; (+)) [(+)-7-(4-fluorophenyl)-2-((3,4-trans)-4-methyl-1-(pyrazin-2-ylmethyl)pyrrolidin-3-yl)imidazo[5,1-f][1,2,4]triazin-4(3H)-one]

- PDE1A selectivity (versus PDE9A2) (PDE1A; [1]): 1738
- IC50 (PDE9A2; [2]): < 1000 nM
- PDE1B selectivity (versus PDE9A2) (PDE1B; [3]): 393
Structure (SMILES): Cc1ccc(F)cc1-c1ncc2c(=O)[nH]c(C3CN(Cc4ccc(F)cc4)CC3C)nn12 (single isomer, unassigned; (+)) [(+)-7-(5-fluoro-2-methylphenyl)-2-((3,4-trans)-1-(4-fluorobenzyl)-4-methylpyrrolidin-3-yl)imidazo[5,1-f][1,2,4]triazin-4(3H)-one]

- PDE1A selectivity (versus PDE9A2) (PDE1A; [1]): 1437
- IC50 (PDE9A2; [2]): < 1000 nM
- PDE1B selectivity (versus PDE9A2) (PDE1B; [3]): 1427
Structure (SMILES): Cc1ccc(F)cc1-c1ncc2c(=O)[nH]c(C3CN(Cc4cn5ccccc5n4)CC3C)nn12 (single isomer, unassigned; (+)) [(+)-7-(5-fluoro-2-methylphenyl)-2-((3,4-trans)-1-(imidazo[1,2-a]pyridin-2-ylmethyl)-4-methylpyrrolidin-3-yl)imidazo[5,1-f][1,2,4]triazin-4(3H)-one]

- PDE1A selectivity (versus PDE9A2) (PDE1A; [1]): 85
- IC50 (PDE9A2; [2]): < 1000 nM
- PDE1B selectivity (versus PDE9A2) (PDE1B; [3]): 74
Structure (SMILES): Cc1ccc(F)cc1-c1ncc2c(=O)[nH]c(C3CN(Cc4cnccn4)CC3C)nn12 (single isomer, unassigned; (+)) [(+)-7-(5-fluoro-2-methylphenyl)-2-((3,4-trans)-4-methyl-1-(pyrazin-2-ylmethyl)pyrrolidin-3-yl)imidazo[5,1-f][1,2,4]triazin-4(3H)-one]

- PDE1A selectivity (versus PDE9A2) (PDE1A; [1]): 560
- IC50 (PDE9A2; [2]): < 1000 nM
- PDE1B selectivity (versus PDE9A2) (PDE1B; [3]): 277
Structure (SMILES): Cc1ccc(F)cc1-c1ncc2c(=O)[nH]c(C3CN(Cc4ccccn4)CC3C)nn12 (single isomer, unassigned; (+)) [(+)-7-(5-fluoro-2-methylphenyl)-2-((3,4-trans)-4-methyl-1-(pyridin-2-ylmethyl)pyrrolidin-3-yl)imidazo[5,1-f][1,2,4]triazin-4(3H)-one]

- PDE1A selectivity (versus PDE9A2) (PDE1A; [1]): 770
- IC50 (PDE9A2; [2]): < 1000 nM
- PDE1B selectivity (versus PDE9A2) (PDE1B; [3]): 505
Structure (SMILES): Cc1ccc(F)cc1-c1ncc2c(=O)[nH]c(C3CN(Cc4cccnc4)CC3C)nn12 (single isomer, unassigned; (+)) [(+)-7-(5-fluoro-2-methylphenyl)-2-((3,4-trans)-4-methyl-1-(pyridin-3-ylmethyl)pyrrolidin-3-yl)imidazo[5,1-f][1,2,4]triazin-4(3H)-one]

- PDE1A selectivity (versus PDE9A2) (PDE1A; [4]): 41
- IC50 (PDE9A2; read-out: Band (PDE9A2 IC50)): < 1000 nM
- PDE1B selectivity (versus PDE9A2) (PDE1B; [5]): 104
Structure (SMILES): CC1CN(Cc2ccc(F)cc2)CC1c1nn2c(C3CCCC3)ncc2c(=O)[nH]1 (single isomer, unassigned; (+)) [(+)-7-cyclopentyl-2-((3,4-trans)-1-(4-fluorobenzyl)-4-methylpyrrolidin-3-yl)imidazo[5,1-f][1,2,4]triazin-4(3H)-one]

- PDE1A selectivity (versus PDE9A2) (PDE1A; [4]): 57
- IC50 (PDE9A2; read-out: Band (PDE9A2 IC50)): < 1000 nM
- PDE1B selectivity (versus PDE9A2) (PDE1B; [5]): 125
Structure (SMILES): CC1CN(Cc2cn3ccccc3n2)CC1c1nn2c(C3CCCC3)ncc2c(=O)[nH]1 (single isomer, unassigned; (+)) [(+)-7-cyclopentyl-2-((3,4-trans)-1-(imidazo[1,2-a]pyridin-2-ylmethyl)-4-methylpyrrolidin-3-yl)imidazo[5,1-f][1,2,4]triazin-4(3H)-one]

- PDE1A selectivity (versus PDE9A2) (PDE1A; [4]): 60
- IC50 (PDE9A2; read-out: Band (PDE9A2 IC50)): < 1000 nM
- PDE1B selectivity (versus PDE9A2) (PDE1B; [5]): 45
Structure (SMILES): CC1CN(Cc2ncccn2)CC1c1nn2c(C3CCCC3)ncc2c(=O)[nH]1 (single isomer, unassigned; (+)) [(+)-7-cyclopentyl-2-((3,4-trans)-4-methyl-1-(pyrimidin-2-ylmethyl)pyrrolidin-3-yl)imidazo[5,1-f][1,2,4]triazin-4(3H)-one]

- PDE1A selectivity (versus PDE9A2) (PDE1A; Table 1, ratio of IC50 values): 1453
- IC50 (PDE9A2; [6]): < 1000 nM
- PDE1B selectivity (versus PDE9A2) (PDE1B; Table 1, ratio of IC50 values): 2980
Structure (SMILES): CC1CN(Cc2ccc(F)cc2)CC1c1nn2c(C3CCC(F)(F)CC3)ncc2c(=O)[nH]1 (single isomer, unassigned; (+)) [(+)-(4,4-difluorocyclohexyl)-2-((3,4-trans)-1-(4-fluorobenzyl)-4-methylpyrrolidin-3-yl)imidazo[5,1-f][1,2,4]triazin-4(3H)-one]

- PDE1A selectivity (versus PDE9A2) (PDE1A; Table 1, ratio of IC50 values): 75
- IC50 (PDE9A2; [6]): < 1000 nM
- PDE1B selectivity (versus PDE9A2) (PDE1B; Table 1, ratio of IC50 values): 121
Structure (SMILES): CC1CN(C)CC1c1nn2c(C3CCOCC3)ncc2c(=O)[nH]1 (single isomer, unassigned; (+)) [(+)-((3,4-trans)-1,4-dimethylpyrrolidin-3-yl)-7-(tetrahydro-2H-pyran-4-yl)imidazo[5,1-f][1,2,4]triazin-4(3H)-one]

- PDE1A selectivity (versus PDE9A2) (PDE1A; Table 1, ratio of IC50 values): 685
- IC50 (PDE9A2; [6]): < 1000 nM
- PDE1B selectivity (versus PDE9A2) (PDE1B; Table 1, ratio of IC50 values): 505
Structure (SMILES): CC1CN(Cc2ccccc2C2CC2)CC1c1nn2c(C3CCOCC3)ncc2c(=O)[nH]1 (single isomer, unassigned; (-)) [(−)-2-((3,4-trans)-1-(2-cyclopropylbenzyl)-4-methylpyrrolidin-3-yl)-7-(tetrahydro-2H-pyran-4-yl)imidazo[5,1-f][1,2,4]triazin-4(3H)-one]

- PDE1A selectivity (versus PDE9A2) (PDE1A; Table 1, ratio of IC50 values): 9
- IC50 (PDE9A2; [6]): < 1000 nM
- PDE1B selectivity (versus PDE9A2) (PDE1B; Table 1, ratio of IC50 values): 7
Structure (SMILES): CC1CN(C(=O)c2ccccc2F)CC1c1nn2c(C3CCOCC3)ncc2c(=O)[nH]1 (single isomer, unassigned; (-)) [(−)-2-((3,4-trans)-1-(2-fluorobenzoyl)-4-methylpyrrolidin-3-yl)-7-(tetrahydro-2H-pyran-4-yl)imidazo[5,1-f][1,2,4]triazin-4(3H)-one]

- PDE1A selectivity (versus PDE9A2) (PDE1A; Table 1, ratio of IC50 values): 26
- IC50 (PDE9A2; [6]): < 1000 nM
- PDE1B selectivity (versus PDE9A2) (PDE1B; Table 1, ratio of IC50 values): 26
Structure (SMILES): CC1CN(C(=O)c2cccc(F)c2)CC1c1nn2c(C3CCOCC3)ncc2c(=O)[nH]1 (single isomer, unassigned; (-)) [(−)-2-((3,4-trans)-1-(3-fluorobenzoyl)-4-methylpyrrolidin-3-yl)-7-(tetrahydro-2H-pyran-4-yl)imidazo[5,1-f][1,2,4]triazin-4(3H)-one]

- PDE1A selectivity (versus PDE9A2) (PDE1A; [1]): 3375
- IC50 (PDE9A2; [2]): < 1000 nM
- PDE1B selectivity (versus PDE9A2) (PDE1B; [3]): 1735
Structure (SMILES): Cc1ccc(F)cc1-c1ncc2c(=O)[nH]c(C3CN(Cc4ccc(Cl)cc4)CC3C)nn12 (single isomer, unassigned; (-)) [(−)-2-((3,4-trans)-1-(4-chlorobenzyl)-4-methylpyrrolidin-3-yl)-7-(5-fluoro-2-methylphenyl)imidazo[5,1-f][1,2,4]triazin-4(3H)-one]

- PDE1A selectivity (versus PDE9A2) (PDE1A; Table 1, ratio of IC50 values): 433
- IC50 (PDE9A2; [6]): < 1000 nM
- PDE1B selectivity (versus PDE9A2) (PDE1B; Table 1, ratio of IC50 values): 540
Structure (SMILES): CC1CN(Cc2nc3ccccc3[nH]2)CC1c1nn2c(C3CCOCC3)ncc2c(=O)[nH]1 (single isomer, unassigned; (-)) [(−)-2-((3,4-trans)-1-((1H-benzo[d]imidazol-2-yl)methyl)-4-methylpyrrolidin-3-yl)-7-(tetrahydro-2H-pyran-4-yl)imidazo[5,1-f][1,2,4]triazin-4(3H)-one]

- PDE1A selectivity (versus PDE9A2) (PDE1A; ratio of IC50 values): 2875
- IC50 (PDE9A2; read-out: Band (PDE9A2 IC50)): < 1000 nM
- PDE1B selectivity (versus PDE9A2) (PDE1B; ratio of IC50 values): 2060
Structure (SMILES): CC1CN(Cc2ccc(-c3ccccc3)cc2)CC1c1nn2c(C3CCOCC3)ncc2c(=O)[nH]1 (single isomer, unassigned; (-)) [(−)-2-((3,4-trans)-1-([1,1′-biphenyl]-4-ylmethyl)-4-methylpyrrolidin-3-yl)-7-(tetrahydro-2H-pyran-4-yl)imidazo[5,1-f][1,2,4]triazin-4(3H)-one]
